Counter-ions that a name gives are not always drawn.

The test system of series [1] is alkaline phosphatase. Kind of series: Kinetic rate of Thymol Blue release at 600 nm from substrate with serum alkaline phosphatase. The note with it: for absorbance rate at 600 nm: 0.1 ml Validate A, 25° C. The format is biochemical. As to the method:
According to the test procedure of the subject invention, Thymol Blue Monophosphate is hydrolyzed by alkaline phosphatase to Thymol Blue in the presence of phosphorylatable diethanolamine buffer at pH 10.2. The color produced as a result thereof is proportional to enzyme present and the average change in absorbance per minute (ΔA/min) is determined at a wavelength of 600 nm.
Other amino alcohol buffers which can be phosphorylated and which can be used in this test are, for example, 2-ethylaminoethanol, 3-dimethylamino-1, 2-propanediol, 2-methylaminoethanol, those listed by Elias Amador, Clinical Chemistry, 18, 94 (1972) and the like. The amino alcohol buffer is present in an amount sufficient to raise the pH of the reaction mixture to about 10.2. The magnesium activator is used in an amount sufficient to activate the alkaline phosphatase enzyme in the sample to be tested. The concentration of magnesium ion in the substrate reagent is about 1.5 millimoles per liter. The concentration of Thymol Blue Monophosphate in the reagent is not critical but must be sufficient to permit a kinetic reaction to proceed over a period of time without the substrate being exhausted. The preferred concentration of this material is between 1 and 3 millimoles per liter. The serum sample to be tested is contacted with the substrate reagent at a given temperature which may be from about 22° to about 40° C. but preferably at 30° C. or 37° C. While the temperature affects the rate of reaction, the particular temperature used, within the limits of the stability of the sample, is not critical hereto. The average change in absorbance per minute (ΔA/min) at 600 nm is then determined in a spectrophotometer capable of reading absorbance at 600 nm and maintaining constant temperature in the cuvet compartment. By definition, one unit of alkaline phosphatase activity is the amount of enzyme that will hydrolyze one micromole of Thymol Blue Monophosphate to Thymol Blue in one minute at 30° C. The enzyme activity is calculated by the following formula: [formula] where: U/liter =units of enzyme activity per liter at 30° C.

The nature of series [2]: Storage stability of substrate / reagent (absorbance at 600 nm, TLC). It is filed as physicochemical.
Series [3] is described as follows: Solubility and physical properties. It is filed as physicochemical.
For series [4], the target named is T1, alkaline phosphatase (Homo sapiens, UniProt P05186).
T1 construct: from tissue; host or cells: serum
T1 sequence (P05186 18-501 limits assumed): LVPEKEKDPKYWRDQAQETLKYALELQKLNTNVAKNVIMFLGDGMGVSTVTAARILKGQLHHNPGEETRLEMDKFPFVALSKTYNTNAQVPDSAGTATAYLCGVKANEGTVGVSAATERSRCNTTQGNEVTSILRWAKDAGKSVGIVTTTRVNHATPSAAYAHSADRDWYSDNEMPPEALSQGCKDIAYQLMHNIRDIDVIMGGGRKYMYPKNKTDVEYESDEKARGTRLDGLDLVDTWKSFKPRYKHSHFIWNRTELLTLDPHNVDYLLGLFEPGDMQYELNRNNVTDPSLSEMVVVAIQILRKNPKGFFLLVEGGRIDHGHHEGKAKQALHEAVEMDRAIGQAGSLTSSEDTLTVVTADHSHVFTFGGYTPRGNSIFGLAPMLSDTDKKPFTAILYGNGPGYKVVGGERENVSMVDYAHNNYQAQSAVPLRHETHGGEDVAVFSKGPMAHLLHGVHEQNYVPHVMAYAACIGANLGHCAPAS
Kind of series: Serum Alkaline Phosphatase End Point Assay. The format is biochemical. The note with it: 1 ml reagent + 0.1 ml serum sample, 10 minutes at 37° C., stopped with NaOH/Na2CO3. As to the method: If so desired an end-point procedure may be employed for determination of serum alkaline phosphatase activity employing Thymol Blue Monophosphate as the substrate. In this instance, the test serum sample is added to the diethanolamine buffered Thymol Blue Monophosphate substrate solution and the reaction is terminated after 10 minutes time by addition of an alkaline reagent such as, for example, 0.1M NaOH and 0.1M Na2 CO3. The absorbance of the sample is read at 600 nm and the enzyme activity is determined from a standard curve prepared from a Thymol Blue standard. The standard curve is prepared by measuring absorbance of dilutions of a known standard and plotting the measured absorbance against the calculated enzyme activity in units per liter.
A substrate for measurement of alkaline phosphatase by the end-point method prepared identical to that of example XVI. One ml of the reagent was placed in a suitable 10 ml tube for measurement of the test specimen and one ml of the reagent was placed in a second tube for measurement of the reagent blank. […] The reagent blank solution was used to set the spectrophotometer at 0 absorption and the specimen tube was then measured and found to have an absorption of 0.329 at 600 nm. From a standard curve constructed from known concentrations of Thymol Blue an activity of alkaline phosphatase of 38 U/liter was determined.

The test system of another series is acid phosphatase. Kind of series: Acid Phosphatase - End Point Assay. The format is biochemical. The note with it: 1.2 mmol/liter substrate, 20 minutes 37° C. On the procedure: An end-point procedure may be employed for determination of acid phosphatase activity employing Thymol Blue Monophosphate as the substrate. In this instance, the test serum sample is added to a Thymol Blue Monophosphate solution buffered to a pH of about 5 and the reaction is terminated by addition of an alkaline reagent after 20 minutes reaction time. The absorbance of the sample is then read at 600 nm and the acid phosphatase enzyme activity is determined from a standard curve prepared from a Thymol Blue standard as described above.
A reagent was prepared containing 1.2 mmol/liter of Thymol Blue Monophosphate, 0.05 M Citrate buffer pH 5.0, and 0.1 % non inonic detergent, Tergitol NPX (Union Carbide Corporation).
One ml of this substrate reagent solution was placed in each of two test tubes which were warmed to 37° C. for 5 minutes. To one of the test tubes was added 0.2 ml of a serum sample containing an elevated level of acid phosphatase. The mixture was then permitted to stand at 37° C. for 20 minutes at which time 3.0 mls of alkali reagent (0.1 m Na2 CO3 + 0.1M NaOH) was added to stop the reaction. […]
The absorption of each solution was measured at 600 nm against distilled water. […] From standard curve, the acid phosphatase activity of the serum was calculated to be 6.5 U/liter.

Setting [5] is: substrate (not freeze-dried) in DEA buffer.

On to `Cc1cc(O)c(C(C)C)cc1C1(c2cc(C(C)C)c(OP(=O)(O)O)cc2C)OS(=O)(=O)c2ccccc21` (stereo not drawn) [I, Thymol Blue Monophosphate, Sodium Salt Solution], for which the “rate of reaction at 600 nm” value in the series with alkaline phosphatase [1] (2 ml working reagent (DEA buffer pH 10.2) + 50 μl Validate A control serum, 30° C.) was 0.0308 min⁻¹.
As for `Cc1cc(O)c(C(C)C)cc1C1(c2cc(C(C)C)c(OP(=O)(O)O)cc2C)OS(=O)(=O)c2ccccc21` (stereo not drawn) [XIII, Thymol Blue Monophosphate, Tris (hydroxymethyl)aminomethane Salt], the “substrate activity with alkaline phosphatase” value in the series with alkaline phosphatase [1] (aqueous solution of the salt, clear amber liquid) is “potent substrate activity”. Besides, the “absorbance rate at 600 nm” value in the series with alkaline phosphatase [1] (freeze-dried reagent reconstituted) worked out at 0.0552 min⁻¹; in the series on alkaline phosphatase [1] (setting [5]) it was 0.0600 min⁻¹.
In the case of `Cc1cc(O)c(C(C)C)cc1C1(c2cc(C(C)C)c(OP(=O)(O)O)cc2C)OS(=O)(=O)c2ccccc21` (stereo not drawn) [XII, Thymol Blue Monophosphate Ammonium Salt], the “absorbance rate at 600 nm” value in the series with alkaline phosphatase [1] (substrate (not freeze-dried) in DEA buffer, Monophosphate Ammonium Salt) came to 0.0486 min⁻¹.
With `Cc1cc(O)c(C(C)C)cc1C1(c2cc(C(C)C)c(OP(=O)(O)O)cc2C)OS(=O)(=O)c2ccccc21` (stereo not drawn) [XI, Thymol Blue Monophosphate Sodium Salt Solution], the “absorbance rate at 600 nm” value in the series on alkaline phosphatase [1] (setting [5]) was determined as 0.0577 min⁻¹.
For `Cc1cc(O)c(C(C)C)cc1C1(c2cc(C(C)C)c(OP(=O)(O)O)cc2C)OS(=O)(=O)c2ccccc21` (stereo not drawn) [X, Thymol Blue Monophosphate Cyclohexylammonium Salt], the “absorbance rate at 600 nm” value in the series on alkaline phosphatase [1] (setting [5]) worked out at 0.0427 min⁻¹. Further, in series [2] (after one month standing at room temperature), the “stability of solid by TLC” value is reported as “Thymol Blue was detected on TLC indicating decomposition”. Further, the hygroscopicity result in series [3] (orange solid product) is “hygroscopic”.
As for `Cc1cc(O)c(C(C)C)cc1C1(c2cc(C(C)C)c(OP(=O)(O)O)cc2C)OS(=O)(=O)c2ccccc21` (stereo not drawn) [II, Thymol Blue Monophosphate (AMPD Salt)], the “performance as substrate for alkaline phosphatase (release of Thymol Blue)” value in the series with alkaline phosphatase [1] (pH 10.2 diethanolamine buffer with magnesium chloride, sera containing alkaline phosphatase) is given as “performed as a substrate for alkaline phosphatase”.
With `Cc1cc(O)c(C(C)C)cc1C1(c2cc(C(C)C)c(OP(=O)(O)O)cc2C)OS(=O)(=O)c2ccccc21` (stereo not drawn) [VIII, Sodium Thymol Blue Monophosphate Solution], in the series with alkaline phosphatase [1] (1 ml substrate solution + 1 ml 0.6 M DEA buffer pH 10.2, 0.1 ml Validate A, temperature not given), the “rate at 600 nm” value came out at 0.0758 min⁻¹. Besides, in series [3] (yellow orange solid), the “solubility in absolute ethanol” value is given as “slightly soluble” and the solubility in water result is given as “readily soluble”.
For the compound `Cc1cc(O)c(C(C)C)cc1C1(c2cc(C(C)C)c(OP(=O)(O)O)cc2C)OS(=O)(=O)c2ccccc21` (stereo not drawn) [III, Phosphorylated Thymol Blue], the “absorbance rate (ΔA/min.) at 600 nm” value with alkaline phosphatase [1] (2 mg solid in 2.9 ml diethanolamine buffer pH 10.2, 0.1 ml Validate A) was 0.0180 min⁻¹; in the series on alkaline phosphatase [1] (5 mg sample in diethanolamine buffer pH 10.2, 0.1 ml Validate A) it was 0.028 min⁻¹.
On to `Cc1cc(O)c(C(C)C)cc1C1(c2cc(C(C)C)c(OP(=O)(O)O)cc2C)OS(=O)(=O)c2ccccc21` (stereo not drawn) [Thymol Blue Monophosphate], for which the “change in absorbance (ΔA/min) at 600 nm” value in the series with alkaline phosphatase [1] (2 ml substrate 1.5 mmol/liter, DEA buffer pH 10.2, MgCl2, 0.05 ml serum to be tested, 30° C.) was 0.022. Further, the “absorption at 600 nm of specimen tube against reagent blank” value at alkaline phosphatase [4] is listed as 0.329. In addition, in the series with acid phosphatase (citrate buffer pH 5.0, 0.2 ml serum with elevated acid phosphatase, against distilled water), the “absorption at 600 nm of test serum sample” value stood at 0.364. In the series on acid phosphatase (citrate buffer pH 5.0, 0.2 ml serum), the “net increase in absorption over blank” value was 0.253 absorption units.
As for `Cc1cc(O)c(C(C)C)cc1C1(c2cc(C(C)C)c(OP(=O)(O)O)cc2C)OS(=O)(=O)c2ccccc21` (stereo not drawn) [IV, Thymol Blue Monophosphate in Diethanolamine Buffer], the “rate at 600 nm” value in the series with alkaline phosphatase [1] (2.9 ml test volume in 1.0M DEA buffer pH 10.2, 0.1 ml Lederzyme Control Sera, 30° C.) was 0.037 min⁻¹. In series [2] (2.9 ml test volume, 1.0M DEA buffer pH 10.2, fresh), the “absorbance at 600 nm of buffered substrate, initial” value is recorded as 0.131. In addition, the “frozen buffered substrate after storage (absorbance)” value in series [2] (frozen, 6 months) is on record as “remained unchanged”. Moreover, the “activity toward alkaline phosphatase after storage” value in series [2] (refrigerated at 2° to 8° C. over 6 months) is recorded as “remained unchanged”. For the same compound, in series [2] (refrigerated at 2° to 8° C. over 6 months, increase due to gradual hydrolysis), the “absorbance at 600 nm of buffered substrate after storage” value is “approximately 0.550”.

(Values after patent US4045290A, “Diagnostic method and compounds for use therewith” (Princeton Biomedix Incorporated, priority 1976, dated 1977).)
